Source: patent US6521632B2, “Method for the treatment or prevention of a disease mediated by the alpha-2B-adrenoceptor” (Oy Juvantia Pharma LTD, priority 2000, dated 2003)

Assays:
human α2B-adrenoceptor [1] = biological target: T1, human α2B-adrenoceptor (Homo sapiens, UniProt P18089); experiment: Competition binding with 3H-rauwolscine, human alpha-2B; parameters: expressed in transfected cells; host or cells: Shionogi S115 cells (membranes); conditions: Mean ± SEM, n = 3 unless indicated, membranes of Shionogi S115 cells, read-out: Binding affinity Ki alpha-2B
T1 sequence (P18089 1-450): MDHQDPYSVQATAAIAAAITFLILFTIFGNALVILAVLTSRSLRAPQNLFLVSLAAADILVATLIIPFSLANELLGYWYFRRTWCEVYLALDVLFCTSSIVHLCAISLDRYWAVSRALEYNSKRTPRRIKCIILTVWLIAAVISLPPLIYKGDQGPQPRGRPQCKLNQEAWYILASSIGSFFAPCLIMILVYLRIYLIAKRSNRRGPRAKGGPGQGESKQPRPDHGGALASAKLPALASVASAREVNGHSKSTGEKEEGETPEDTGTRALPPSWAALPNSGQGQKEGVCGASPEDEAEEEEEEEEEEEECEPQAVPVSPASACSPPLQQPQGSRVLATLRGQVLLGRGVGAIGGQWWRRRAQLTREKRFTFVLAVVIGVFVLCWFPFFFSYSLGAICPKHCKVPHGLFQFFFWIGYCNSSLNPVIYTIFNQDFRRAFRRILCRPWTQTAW
Description: (§1) Binding Affinity Human Alpha-2-adrenoceptor
(§2) The affinity of test compounds for the three human α2-adrenoceptor subtypes (α2A, α2B and α2C) was determined in competition binding assays with ^3H-rauwolscine. The biological material for these experiments consisted of membranes from Shionogi S115 cells stably transfected with either of the three human α2 subtypes (Marjarnaki et al. 1992). Membrane (5-10 μg of total protein per sample) and 1 nM-2 nM ^3H-rauwolscine (specific activity 78 Ci/mrnmol) were incubated in 50 mM KH2PO4, pH 7.5 with 6 concentrations of the compounds. Each concentration was run in duplicate. Nonspecific binding was defined by 100 μM oxymetazoline and corresponded to 5-15% of total binding. After 30 mim at room temperature, incubations were terminated by rapid vacuum filtration through GF/B glass fiber filter and three 5 ml washes with icecold incubation buffer. The filters were then dried, impregnated with scintillate and their radioactivity was measured by scintillation counting. The analysis of the experiments was carried out by nonlineair least square curve fitting. Experimentally determined IC50 values were converted to Ki's by making use of the Cheng-Prusoff equation (Cheng and Prusoff, 1973). Experiments were repeated a minimum of three times.

human α2C-adrenoceptor [2] = biological target: T2, human α2C-adrenoceptor (Homo sapiens, UniProt P18825); experiment: Inhibition of epinephrine-stimulated 35S-GTPγS binding, human alpha-2C; assay type: biochemical; conditions: Mean ± SEM, n minimum three; CHO cell membranes; epinephrine 5 μM; incomplete dose-response curves, KB numbers are minimum estimates; read-out: Antagonist effect KB alpha-2C
T2 sequence (P18825 1-462): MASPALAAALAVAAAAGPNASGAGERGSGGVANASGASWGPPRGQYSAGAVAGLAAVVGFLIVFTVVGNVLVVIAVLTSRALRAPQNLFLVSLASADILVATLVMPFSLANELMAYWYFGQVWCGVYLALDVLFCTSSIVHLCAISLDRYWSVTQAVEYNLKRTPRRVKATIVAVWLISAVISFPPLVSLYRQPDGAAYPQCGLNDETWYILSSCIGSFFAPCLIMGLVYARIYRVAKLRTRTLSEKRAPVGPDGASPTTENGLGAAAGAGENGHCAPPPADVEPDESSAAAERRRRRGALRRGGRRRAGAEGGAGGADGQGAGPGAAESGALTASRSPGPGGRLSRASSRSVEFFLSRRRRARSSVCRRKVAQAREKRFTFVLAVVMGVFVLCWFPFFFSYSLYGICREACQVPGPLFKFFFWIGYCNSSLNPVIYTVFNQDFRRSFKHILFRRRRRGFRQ
Description: (§3) Antagonist Activity on Human a2-adrenoceptor Subtypes
(§4) Membranes (2-6 μg of protein per samnple) and 12 concentrations of test compound were preincubated for 30 min with a fixed concentration fo epinephrine (5 μM for α2A, 15 μM for α2B, 5 μM for α2C) in 50 mM Tris, 5 mM MgCl2, 150 mM NaCl, 1 mM DTT,
(§5) 1 mM EDTA, 10 μuM GDP, 30 μM ascoerbic acid, pH 7.4 at room temperature. Binding of radiolabel was started by the addition of trace amounts of ^35S-GTPγS (0.08 nM-0.15 nM, specific activity 1250 Ci/mmol) to the incubation mixture. After an additional 60 min at room temperature, the incubation was terminated by rapid vacuum filtration through glass fiber filter. Filters were washed three times with 5 ml icecold wash buffer (20 mM Tris, 5 mM MgCl2, 1 mM EDTA pH 7.4 at room temperature), dried and counted for radioactivity in a scintiallation counter. Analysis of experiments was carried out by nonlinear least square fitting. Experiments were repeated at least three times.

human α2A-adrenoceptor [3] = biological target: T3, human α2A-adrenoceptor (Homo sapiens, UniProt P08913); experiment: Inhibition of epinephrine-stimulated 35S-GTPγS binding, human alpha-2A; assay type: biochemical; conditions: Mean ± SEM, n minimum three; CHO cell membranes; epinephrine 5 μM; incomplete dose-response curves, KB numbers are minimum estimates; read-out: Antagonist effect KB alpha-2A
T3 sequence (P08913 1-465): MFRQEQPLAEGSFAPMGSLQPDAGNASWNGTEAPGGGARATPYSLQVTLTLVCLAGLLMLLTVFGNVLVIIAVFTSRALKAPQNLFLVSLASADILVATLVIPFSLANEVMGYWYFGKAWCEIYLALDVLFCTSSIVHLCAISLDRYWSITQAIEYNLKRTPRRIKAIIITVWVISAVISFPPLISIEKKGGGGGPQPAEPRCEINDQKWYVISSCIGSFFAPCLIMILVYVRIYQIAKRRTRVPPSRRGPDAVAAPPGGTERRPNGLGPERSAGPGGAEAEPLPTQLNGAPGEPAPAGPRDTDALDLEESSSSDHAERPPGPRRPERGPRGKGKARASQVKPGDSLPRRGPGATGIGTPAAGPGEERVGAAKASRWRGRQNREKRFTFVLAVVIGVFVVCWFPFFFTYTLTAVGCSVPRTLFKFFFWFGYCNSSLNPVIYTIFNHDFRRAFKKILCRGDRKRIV
Description: as §3, §4, §5

human α2B-adrenoceptor [4] = biological target: T1, human α2B-adrenoceptor; experiment: Inhibition of epinephrine-stimulated 35S-GTPγS binding, human alpha-2B; assay type: biochemical; conditions: Mean ± SEM, n minimum three; CHO cell membranes; epinephrine 15 μM; read-out: Antagonist effect KB alpha-2B
Description: as §3, §4, §5

human α2C-adrenoceptor [5] = biological target: T2, human α2C-adrenoceptor; experiment: Competition binding with 3H-rauwolscine, human alpha-2C; parameters: expressed in transfected cells; host or cells: Shionogi S115 cells (membranes); conditions: Mean ± SEM, n = 3 unless indicated, membranes of Shionogi S115 cells, read-out: Binding affinity Ki alpha-2C
Description: as §1, §2

[6] = biological target: rat neocortical α1-adrenoceptors; experiment: Competition binding with 3H-prazosin, rat neocortex membranes; conditions: concentrations of up to 30 μM
Description: Binding Affinity Rat Cortical α1-adrenoceptor
The affinity for rat neocortical α1-adrenoceptors was determined in competition binding assays with ^3H-prazosin. The biological material for these assays consisted of membranes from rat neocortex. Membrane suspensions (100-200 μg of total protein per sample) and 0.2 nM-0.25 nM of ^3H-prazosin (specific activity 74 Ci/mmol) were incubated with 6 concentrations of compounds in a total volume of 0.25 ml (50 mM Tris pH 7.7 at 25° C). Each concentration was run in duplicate. Nonspecific binding was defined by 10 μM phentolamine methanesulfonate and corresponded to 25-30% of total binding. After 30 min at room temperature, incubations was terminated by rapid filtration through GF/B glass-fiber filter mats and three washes with ice-cold 10 mM Tris (pH 7.7 at 4° C.). After drying, a solid scintillate was melted onto the filter mats, and their radioactivity was measured by scintillation counting.

human α2A-adrenoceptor [7] = biological target: T3, human α2A-adrenoceptor; experiment: Competition binding with 3H-rauwolscine, human alpha-2A; parameters: expressed in transfected cells; host or cells: Shionogi S115 cells (membranes); conditions: Mean ± SEM, n = 3 unless indicated, membranes of Shionogi S115 cells, read-out: Binding affinity Ki alpha-2A
Description: as §1, §2

SMILES	Ki (human α2B-adrenoceptor [1]) [µM]	Kb (human α2C-adrenoceptor [2]) [µM]	Kb (human α2A-adrenoceptor [3]) [µM]	Kb (human α2B-adrenoceptor [4]) [µM]	Ki (human α2C-adrenoceptor [5]) [µM]	IC50 ([6]; read-out: IC50, displacement of 3H-prazosin) [µM]	Ki ([6]; read-out: Ki, displacement of 3H-prazosin) [µM]	Ki (human α2A-adrenoceptor [7]) [µM]
CCn1c(CNc2ccc(S(=O)(=O)Nc3nc(C)cc(C)n3)cc2)nc2ccccc21 [A]	0.03 ± 0.004	2.4 ± 0.9	2.4 ± 0.7	0.073 ± 0.023	> 4.7	> 30	> 30	4.1 ± 0.2
Cc1cc(C)nc(NS(=O)(=O)c2ccc(NCc3nc4ccccc4n3C)cc2)n1 [B]	0.215 ± 0.06	> 10	> 10	0.25 ± 0.08	> 30			> 30
CCOc1ccc(C(=O)Nc2ccc(S(=O)(=O)Nc3nc(C)cc(C)n3)cc2)cc1 [C]	1.86				> 30			> 30
Cc1cc(C)nc(NS(=O)(=O)c2ccc(NC(=O)/C=C/c3ccc(F)cc3)cc2)n1 [D]	0.53 ± 0.09				> 30			> 30
Cc1cc(C)nc(NS(=O)(=O)c2ccc(NC(=O)COc3ccccc3)cc2)n1 [E]	2.9 ± 0.3				> 100			> 100
